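Tested at 5 concentrations; 48 h exposure; 96-well plates; endpoints linearly interpolated, else capped at highest concentration. Abbreviation: GI50, concentration required for 50% inhibition of growth.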 Activity calls are given as the source filed them. Cut-off read from the data, not from the text of the source: active = GI50 up to about 1.1 µM and inactive = higher.
How the values were obtained:
Assay in all cases: NCI tumour cell line growth inhibition, 48 h
DLD-1 = system: DLD-1
DMS-114 = system: DMS-114
DMS-273 = system: DMS-273
HOP-18 = system: HOP-18
KM-20L2 = system: KM-20L2
LXFL 529 = system: LXFL 529
M19-MEL = system: M19-MEL
RXF 631 = system: RXF 631
SNB-78 = system: SNB-78

| SMILES | GI50 (DLD-1) | GI50 (DMS-114) | GI50 (DMS-273) | GI50 (HOP-18) | GI50 (KM-20L2) | GI50 (LXFL 529) | GI50 (M19-MEL) | GI50 (RXF 631) | GI50 (SNB-78) |
| --- | --- | --- | --- | --- | --- | --- | --- | --- | --- |
| Cn1c(=O)c(/N=N/c2c(=O)n(C)c(=O)n3c2[nH]c2ccccc23)c2[nH]c3ccccc3n2c1=O | > 100 µM (inactive) | 63 µM (inactive) | > 100 µM (inactive) | 24 µM (inactive) | > 100 µM (inactive) | 20 µM (inactive) | > 100 µM (inactive) | 85.7 µM (inactive) | > 100 µM (inactive) |
| NCCCNCc1c2ccccc2c(CNCCCN)c2ccccc12 | 34.6 µM (inactive) | 14.3 µM (inactive) |  | 25.1 µM (inactive) | 17.9 µM (inactive) | 11.4 µM (inactive) | 14.7 µM (inactive) |  | 22.5 µM (inactive) |
| COc1cc(/C=C2\CCC(CN(C)C)C2=O)ccc1OC(=O)c1ccccc1 (stereo not given) | 4.67 µM (inactive) | 15.8 µM (inactive) | 11.1 µM (inactive) | 16.9 µM (inactive) | 15.9 µM (inactive) | 2.88 µM (inactive) | 8.57 µM (inactive) | 11.2 µM (inactive) | 19.2 µM (inactive) |
| Cc1ccc(S(=O)(=O)NC(=O)NCCc2ccccc2)cc1 | > 100 µM (inactive) | 62.1 µM (inactive) |  | > 100 µM (inactive) | > 100 µM (inactive) | > 100 µM (inactive) | > 100 µM (inactive) |  | > 100 µM (inactive) |
| O=C1C(O)=C(CC=C(Cl)Cl)C(=O)c2ccccc21 | 1.65 µM (inactive) | 18 µM (inactive) | 2.04 µM (inactive) | 25.4 µM (inactive) | 9.42 µM (inactive) | 2.38 µM (inactive) | 7.64 µM (inactive) |  | 21.9 µM (inactive) |
| CCCCCCCCCCCCCCCC(=O)OCC1OC(n2cc(F)c(=O)[nH]c2=O)C(N)C(O)C1O (stereo not given) | 20.6 µM (inactive) | 18.8 µM (inactive) |  | 16.3 µM (inactive) | 17.2 µM (inactive) | 18.9 µM (inactive) | 18.7 µM (inactive) |  |  |
| O=C(NNC(=O)/C(=C/c1cccc([N+](=O)[O-])c1)NC(=O)c1ccccc1)Nc1ccc(Cl)cc1 | 12.6 µM (inactive) | 11.5 µM (inactive) | 12.9 µM (inactive) | 15.6 µM (inactive) | 17.1 µM (inactive) | 10.6 µM (inactive) | 15.2 µM (inactive) | 10.2 µM (inactive) | 24 µM (inactive) |
| N#Cc1ccccc1/C=N/O | > 93.8 µM (inactive) | > 59.4 µM (inactive) | > 41.4 µM (inactive) | > 100 µM (inactive) | > 100 µM (inactive) | > 91.4 µM (inactive) | > 100 µM (inactive) |  | > 100 µM (inactive) |
| CCN1C[C@]2(C)CC[C@H](O)C34C1C(C[C@@H]32)[C@@]1(O)CC[C@H]2C[C@@H]4[C@@H]1[C@H]2O | > 100 µM (inactive) | > 100 µM (inactive) | > 100 µM (inactive) | > 100 µM (inactive) | > 100 µM (inactive) | > 100 µM (inactive) | > 100 µM (inactive) |  | 88.7 µM (inactive) |
| Cc1ccc(NC(=O)c2cc3cc(/N=N/c4ccccc4C(=O)O)ccc3oc2=O)cc1 | 41 µM (inactive) | 24 µM (inactive) | 37.4 µM (inactive) | 32 µM (inactive) | 36 µM (inactive) |  |  |  |  |
| COC(=O)c1c/c(=N\NC(=O)CC(=O)Nc2ccccc2Cl)c2ccccc2o1 | > 100 µM (inactive) | > 100 µM (inactive) | > 100 µM (inactive) |  | > 100 µM (inactive) | > 100 µM (inactive) |  | > 100 µM (inactive) | > 100 µM (inactive) |
| COCCCNC(=O)C1C(=O)N(CCCOC)C(=O)/C1=N\N (stereo not given) | > 100 µM (inactive) | > 100 µM (inactive) | > 100 µM (inactive) | > 100 µM (inactive) | > 100 µM (inactive) | > 100 µM (inactive) | > 100 µM (inactive) | > 100 µM (inactive) | > 100 µM (inactive) |
| Cc1nc(N2N=C(c3ccc(Cl)cc3)CCC2=O)sc1[N+](=O)[O-] | > 100 µM (inactive) | > 100 µM (inactive) | > 100 µM (inactive) | > 100 µM (inactive) | > 100 µM (inactive) | > 100 µM (inactive) | > 100 µM (inactive) |  | > 100 µM (inactive) |
| COc1cc(-c2nccc3cc(OC)c(OC)cc23)ccc1O | 76.4 µM (inactive) |  | 43.5 µM (inactive) | 21.1 µM (inactive) | 33.7 µM (inactive) | 29.7 µM (inactive) | > 100 µM (inactive) | 62.4 µM (inactive) | > 100 µM (inactive) |
| O=C(CSc1nnc(-c2ccc(/N=C\c3ccc(Cl)cc3)cc2)o1)Nc1ccc(Cl)cc1Cl | 27.3 µM (inactive) |  | 34.3 µM (inactive) | 11.6 µM (inactive) | 37.2 µM (inactive) | 22.4 µM (inactive) | 31.7 µM (inactive) |  | > 100 µM (inactive) |
| Brc1ccccc1C1SCc2nc3ccccc3n21 (stereo not given) | 12.7 µM (inactive) | 16 µM (inactive) |  | < 0.01 µM (active) |  | 15.1 µM (inactive) | 15 µM (inactive) |  | 26.4 µM (inactive) |
| CC(O)C(C(=O)O)N(CC1(O)OCC(O)C(O)C1O)N=O (stereo not given) | > 100 µM (inactive) | > 100 µM (inactive) | > 100 µM (inactive) |  | > 100 µM (inactive) | > 100 µM (inactive) | > 100 µM (inactive) | > 100 µM (inactive) | > 100 µM (inactive) |
| CCCCCCCCC(=O)N(C)C1C2CN3CCC(O2)C13 (stereo not given) | > 100 µM (inactive) | > 100 µM (inactive) | > 100 µM (inactive) | > 100 µM (inactive) | > 100 µM (inactive) | > 100 µM (inactive) | > 100 µM (inactive) |  | > 100 µM (inactive) |
| C/C(=N\Nc1ccccc1)c1sc(-c2nc(C)c(/C(C)=N/Nc3ccccc3)s2)nc1C | 22.1 µM (inactive) | 11.5 µM (inactive) | 8.93 µM (inactive) | > 45 µM (inactive) | 6.46 µM (inactive) | 7.06 µM (inactive) | 17.2 µM (inactive) |  | > 64.7 µM (inactive) |

From ChEMBL document CHEMBL1201862, “PubChem BioAssay data set” (2004)
